Results from US20250195521A1 (Revolution Medicines, Inc., priority 2020, published 2025).
pIC50: −log10 of the molar value. Where two headings read alike, the source gives them in different places.

Experiments:
[1] = test system: NCI-H358 cells (K-Ras G12C); experiment: CellTiter-Glo cell viability, NCI-H358; type: cell-based, human; conditions: Homo sapiens, NCI-H358, 120 h, read-out: H358 Cell Viability IC50
In short: (§1)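 Viability is read as luminescence after five days of compound exposure, with plates first equilibrated to room temperature for roughly 30 minutes. Each signal is expressed as a percentage of the mean DMSO control, and curves are fitted by four-parameter logistic regression.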

[2] = test system: Capan-1 cells (K-Ras G12V); experiment: CellTiter-Glo cell viability, Capan-1; type: cell-based, human; conditions: Homo sapiens, CAPAN-1, 120 h, read-out: Capan-1 Cell Viability IC50
In short: as §1

[3] = molecular target: KRAS G12C (Homo sapiens (Human), UniProt P01116+P62937, G12C); experiment: Ras-Raf disruption/FRET/MOA assay (BRAF RBD, Cyclophilin A); type: biochemical; conditions: read-out: KRAS G12C FRET IC50
In short: (§2)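 His6-K-Ras-GMPPNP (12.5 nM), GST-BRAF RBD (50 nM) and tagless Cyclophilin A (25 μM) were combined in 25 mM HEPES pH 7.3 with 100 mM NaCl, 5 mM MgCl2, 0.1% BSA and 0.002% Tween20, with compound as a 10-point 3-fold series from 30 μM final, then incubated 3 h at 25° C.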

[4] = molecular target: KRAS G12D (Homo sapiens (Human), UniProt P01116+P62937, G12D); experiment: as above; type: biochemical; conditions: read-out: KRAS G12D FRET IC50
In short: as §2

[5] = molecular target: KRAS G12S (Homo sapiens (Human), UniProt P01116+P62937, G12S); experiment: as above; type: biochemical; conditions: read-out: KRAS G12S FRET IC50
In short: as §2

[6] = molecular target: KRAS G12V (Homo sapiens (Human), UniProt P01116+P62937, G12V); experiment: as above; type: biochemical; conditions: read-out: KRAS G12V FRET IC50
In short: as §2

[7] = molecular target: KRAS G13C (Homo sapiens (Human), UniProt P01116+P62937, G13C); experiment: as above; type: biochemical; conditions: read-out: KRAS G13C FRET IC50
In short: as §2

[8] = molecular target: KRAS G13D (Homo sapiens (Human), UniProt P01116+P62937, G13D); experiment: as above; type: biochemical; conditions: read-out: KRAS G13D FRET data IC50
In short: as §2

[9] = molecular target: KRAS Q61H (Homo sapiens (Human), UniProt P01116+P62937, Q61H); experiment: as above; type: biochemical
In short: as §2

[10] = molecular target: KRAS WT (Homo sapiens (Human), UniProt P01116+P62937); experiment: as above; type: biochemical; conditions: read-out: KRAS WT FRET data IC50
In short: as §2

[11] = molecular target: NRAS G12C (Homo sapiens (Human), UniProt P01111+P62937, G12C); experiment: as above; type: biochemical; conditions: read-out: NRAS G12C FRET data IC50
In short: (§3)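 Ras-GMPPNP (12.5 nM), BRAF RBD (50 nM) and 25 μM Cyclophilin A were incubated with compound for 3 h at 25° C, then detected 1.5 h with anti-His Eu and anti-GST APC; IC50 values follow from the reduced TR-FRET ratio.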

[12] = molecular target: NRAS Q61K (Homo sapiens (Human), UniProt P01111+P62937, Q61K); experiment: as above; type: biochemical
In short: as §3

[13] = molecular target: NRAS Q61R (Homo sapiens (Human), UniProt P01111+P62937, Q61R); experiment: as above; type: biochemical
In short: as §3

[14] = molecular target: NRAS WT (Homo sapiens (Human), UniProt P01111+P62937); experiment: as above; type: biochemical
In short: as §3

Measured: pIC50

Sequence of KRAS G13D (P01116 other isoform, or with tags, fused parts or gaps G13D): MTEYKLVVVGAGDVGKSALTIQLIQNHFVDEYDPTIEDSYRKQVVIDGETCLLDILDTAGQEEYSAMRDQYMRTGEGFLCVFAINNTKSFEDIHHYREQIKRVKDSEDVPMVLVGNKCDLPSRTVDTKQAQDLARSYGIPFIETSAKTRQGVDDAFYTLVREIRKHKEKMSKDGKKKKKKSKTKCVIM
Sequence of KRAS G13D (P62937 whole entry): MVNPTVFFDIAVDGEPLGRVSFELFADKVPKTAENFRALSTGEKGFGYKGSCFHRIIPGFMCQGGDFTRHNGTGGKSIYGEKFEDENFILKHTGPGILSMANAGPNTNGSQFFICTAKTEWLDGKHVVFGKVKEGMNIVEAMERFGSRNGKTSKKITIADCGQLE
Sequence of KRAS G12C (P01116-2 other isoform, or with tags, fused parts or gaps G12C): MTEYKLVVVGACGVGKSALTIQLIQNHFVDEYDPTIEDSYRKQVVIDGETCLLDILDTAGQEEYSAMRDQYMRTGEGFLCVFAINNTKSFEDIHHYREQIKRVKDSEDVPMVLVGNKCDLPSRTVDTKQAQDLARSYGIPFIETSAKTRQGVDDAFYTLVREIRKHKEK
Sequence of KRAS G12C (P62937 whole entry): as the sequence (P62937 whole entry) above
Sequence of KRAS G12V (P01116 other isoform, or with tags, fused parts or gaps G12V): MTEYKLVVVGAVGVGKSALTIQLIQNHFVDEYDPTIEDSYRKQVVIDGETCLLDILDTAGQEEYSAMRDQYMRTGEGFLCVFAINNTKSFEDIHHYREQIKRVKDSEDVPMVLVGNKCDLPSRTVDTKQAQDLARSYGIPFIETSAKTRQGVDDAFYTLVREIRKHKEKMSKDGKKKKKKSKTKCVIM
Sequence of KRAS G12V (P62937 whole entry): as the sequence (P62937 whole entry) above
Sequence of KRAS G12D (P01116 other isoform, or with tags, fused parts or gaps G12D): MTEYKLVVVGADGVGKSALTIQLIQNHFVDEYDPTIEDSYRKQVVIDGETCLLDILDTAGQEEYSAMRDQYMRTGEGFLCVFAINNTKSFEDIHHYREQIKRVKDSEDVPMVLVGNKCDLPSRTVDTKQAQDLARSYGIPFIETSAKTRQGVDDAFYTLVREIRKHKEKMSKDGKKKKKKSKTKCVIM
Sequence of KRAS G12D (P62937 whole entry): as the sequence (P62937 whole entry) above
Sequence of NRAS WT (P01111 whole entry): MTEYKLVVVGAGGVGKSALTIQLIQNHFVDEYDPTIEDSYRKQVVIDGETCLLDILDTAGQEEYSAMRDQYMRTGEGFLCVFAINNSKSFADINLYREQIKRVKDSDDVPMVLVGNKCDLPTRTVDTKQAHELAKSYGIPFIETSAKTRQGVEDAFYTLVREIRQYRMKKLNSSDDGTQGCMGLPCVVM
Sequence of NRAS WT (P62937 whole entry): as the sequence (P62937 whole entry) above
Sequence of KRAS G13C (P01116 other isoform, or with tags, fused parts or gaps G13C): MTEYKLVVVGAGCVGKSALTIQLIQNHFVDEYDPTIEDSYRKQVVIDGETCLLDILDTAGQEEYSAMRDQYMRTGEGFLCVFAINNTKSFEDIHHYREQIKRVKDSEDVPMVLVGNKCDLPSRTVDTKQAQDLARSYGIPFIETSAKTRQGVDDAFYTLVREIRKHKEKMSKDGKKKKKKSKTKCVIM
Sequence of KRAS G13C (P62937 whole entry): as the sequence (P62937 whole entry) above
Sequence of NRAS Q61K (P01111 whole entry Q61K): as the sequence (P01111 whole entry) above, with Q61K counted along it
Sequence of NRAS Q61K (P62937 whole entry): as the sequence (P62937 whole entry) above
Sequence of KRAS G12S (P01116 other isoform, or with tags, fused parts or gaps G12S): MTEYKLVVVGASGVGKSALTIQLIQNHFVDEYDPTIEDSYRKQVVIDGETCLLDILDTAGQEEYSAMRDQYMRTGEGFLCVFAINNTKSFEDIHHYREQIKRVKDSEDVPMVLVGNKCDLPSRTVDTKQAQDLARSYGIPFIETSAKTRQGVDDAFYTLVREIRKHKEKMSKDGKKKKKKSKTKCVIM
Sequence of KRAS G12S (P62937 whole entry): as the sequence (P62937 whole entry) above
Sequence of NRAS Q61R (P01111 whole entry Q61R): as the sequence (P01111 whole entry) above, with Q61R counted along it
Sequence of NRAS Q61R (P62937 whole entry): as the sequence (P62937 whole entry) above
Sequence of KRAS WT (P01116 other isoform, or with tags, fused parts or gaps): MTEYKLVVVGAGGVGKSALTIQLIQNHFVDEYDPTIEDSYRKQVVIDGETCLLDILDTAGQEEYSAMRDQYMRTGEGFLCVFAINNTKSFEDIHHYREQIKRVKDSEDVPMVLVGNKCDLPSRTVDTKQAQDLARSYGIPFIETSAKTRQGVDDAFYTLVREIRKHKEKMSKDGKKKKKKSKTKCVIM
Sequence of KRAS WT (P62937 whole entry): as the sequence (P62937 whole entry) above
Sequence of NRAS G12C (P01111 whole entry G12C): as the sequence (P01111 whole entry) above, with G12C counted along it
Sequence of NRAS G12C (P62937 whole entry): as the sequence (P62937 whole entry) above
Sequence of KRAS Q61H (P01116 other isoform, or with tags, fused parts or gaps Q61H): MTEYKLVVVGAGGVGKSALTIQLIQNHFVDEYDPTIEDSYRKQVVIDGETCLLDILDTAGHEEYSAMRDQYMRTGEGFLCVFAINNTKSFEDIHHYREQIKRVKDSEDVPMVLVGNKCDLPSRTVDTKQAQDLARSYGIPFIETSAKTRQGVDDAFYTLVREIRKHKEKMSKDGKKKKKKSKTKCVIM
Sequence of KRAS Q61H (P62937 whole entry): as the sequence (P62937 whole entry) above

CCn1c(-c2cccnc2[C@H](C)OC)c2c3cc(ccc31)-c1csc(n1)C[C@H](NC(=O)N1CCOCC1)C(=O)N1CCC[C@H](N1)C(=O)OCC(C)(C)C2 [Compound A270]
6.00 to 7.00: [1]; K-Ras G12C, 5-day treatment | [3] | [4] | [5] | [6] | [7] | [8] | [9] | [10] | [11] | [12] | [13] | [14]
5.00 to 6.00: [2]; K-Ras G12V, 5-day treatment

CCn1c(-c2cccnc2[C@H](C)OC)c2c3cc(ccc31)-c1csc(n1)C[C@H](NC(=O)[C@H](C(C)C)N(C)C(=O)N1[C@H](C)COC[C@@H]1C)C(=O)N1CCC[C@H](N1)C(=O)OCC(C)(C)C2 [Compound A276]
6.00 to 7.00: [1]; K-Ras G12C, 5-day treatment | [2]; K-Ras G12V, 5-day treatment | [3] | [5] | [7] | [9] | [10] | [11] | [12] | [13] | [14]
5.00 to 6.00: [4] | [6] | [8]

CCn1c(-c2cccnc2[C@H](C)OC)c2c3cc(ccc31)-c1csc(n1)C[C@H](NC(=O)[C@H](C(C)C)N(C)C(=O)N1CCS(=O)(=O)CC1)C(=O)N1CCC[C@H](N1)C(=O)OCC(C)(C)C2 [Compound A357]
5.00 to 6.00: [4]
6.00 to 7.00: [3] | [5] | [6] | [7] | [8] | [9] | [10] | [12] | [13] | [14]
7.00 to 8.00: [1]; K-Ras G12C, 5-day treatment | [2]; K-Ras G12V, 5-day treatment | [11]

CCn1c(-c2cccnc2[C@H](C)OC)c2c3cc(ccc31)-c1csc(n1)C[C@H](NC(=O)[C@H](C(C)C)N(C)C(=O)[C@@H]1[C@@H]3CN(C)C[C@@H]31)C(=O)N1CCC[C@H](N1)C(=O)OCC(C)(C)C2 [Compound A447]
6.00 to 7.00: [1]; K-Ras G12C, 5-day treatment | [2]; K-Ras G12V, 5-day treatment | [3] | [4] | [5] | [7] | [8] | [9] | [10] | [11] | [12] | [14]
5.00 to 6.00: [6] | [13]

CCn1c(-c2cccnc2[C@H](C)OC)c2c3cc(ccc31)-c1csc(n1)C[C@H](NC(=O)[C@H](C(C)C)N(C)C(=O)N1CC[C@@]3(CCNC3=O)C1)C(=O)N1CCC[C@H](N1)C(=O)OCC(C)(C)C2 [Compound A480]
6.00 to 7.00: [1]; K-Ras G12C, 5-day treatment | [2]; K-Ras G12V, 5-day treatment | [3] | [5] | [6] | [7] | [8] | [10] | [11] | [12] | [13] | [14]
5.00 to 6.00: [4]
7.00 to 8.00: [9]

CCn1c(-c2cccnc2[C@H](C)OC)c2c3cc(ccc31)-c1cc(CF)cc(c1)C[C@H](NC(=O)[C@H](C(C)C)N(C)C(=O)[C@@H]1OCC[C@@H]1c1ccccc1)C(=O)N1CCC[C@H](N1)C(=O)OCC(C)(C)C2 [Compound A509]
6.00 to 7.00: [4] | [5] | [6] | [8] | [10] | [12] | [13] | [14]
7.00 to 8.00: [1]; K-Ras G12C, 5-day treatment | [2]; K-Ras G12V, 5-day treatment | [3] | [7] | [9] | [11]

CCn1c(-c2cccnc2[C@H](C)OC)c2c3cc(ccc31)-c1csc(n1)C[C@H](NC(=O)[C@H](C(C)C)N(C)C(=O)N1CC3(CCOCC3)C1)C(=O)N1CCC[C@H](N1)C(=O)OCC(C)(C)C2 [Compound A521]
7.00 to 8.00: [1]; K-Ras G12C, 5-day treatment | [2]; K-Ras G12V, 5-day treatment
5.00 to 6.00: [4] | [8]
6.00 to 7.00: [3] | [5] | [6] | [7] | [9] | [10] | [11] | [12] | [13] | [14]

CCn1c(-c2cccnc2[C@H](C)OC)c2c3cc(ccc31)-c1csc(n1)C[C@H](NC(=O)[C@H](C(C)C)N(C)C(=O)N1CC(O)(COC)C1)C(=O)N1CCC[C@H](N1)C(=O)OCC(C)(C)C2 [Compound A553]
7.00 to 8.00: [1]; K-Ras G12C, 5-day treatment
5.00 to 6.00: [4] | [5] | [8]
6.00 to 7.00: [2]; K-Ras G12V, 5-day treatment | [3] | [6] | [7] | [9] | [10] | [11] | [12] | [13] | [14]

CCn1c(-c2cccnc2[C@H](C)OC)c2c3cc(ccc31)-c1cc(O)cc(c1)C[C@H](NC(=O)[C@H](C(C)C)N(C)C(=O)[C@H]1C[C@H]1O)C(=O)N1CCC[C@H](N1)C(=O)OCC(C)(C)C2 [Compound A554]
5.00 to 6.00: [2]; K-Ras G12V, 5-day treatment
6.00 to 7.00: [1]; K-Ras G12C, 5-day treatment | [4] | [8] | [12] | [13]
7.00 to 8.00: [3] | [5] | [6] | [7] | [9] | [10] | [11] | [14]

CCn1c(-c2cccnc2[C@H](C)OC)c2c3cc(ccc31)-c1csc(n1)C[C@H](NC(=O)[C@H](C(C)C)N1CCC3(COC3)C1)C(=O)N1CCC[C@H](N1)C(=O)OCC(C)(C)C2 [Compound A561]
7.00 to 8.00: [2]; K-Ras G12V, 5-day treatment | [3] | [5] | [9] | [10] | [11] | [12] | [13] | [14]
> 8.00: [1]; K-Ras G12C, 5-day treatment
6.00 to 7.00: [4] | [6] | [7] | [8]

CCn1c(-c2cccnc2[C@H](C)OC)c2c3cc(ccc31)-c1csc(n1)C[C@H](NC(=O)[C@H](C(C)C)N(C)C(=O)N(C)[C@@H]1CCN(C)C1)C(=O)N1CCC[C@H](N1)C(=O)OCC(C)(C)C2 [Compound A564]
6.00 to 7.00: [2]; K-Ras G12V, 5-day treatment | [3] | [4] | [5] | [6] | [7] | [8] | [10] | [11] | [12] | [13] | [14]
7.00 to 8.00: [1]; K-Ras G12C, 5-day treatment | [9]

CCn1c(-c2cccnc2[C@H](C)OC)c2c3cc(ccc31)-c1csc(n1)C[C@H](NC(=O)[C@H](C(C)C)N(C)C(=O)N1CCCC3(CN(C)C3)C1)C(=O)N1CCC[C@H](N1)C(=O)OCC(C)(C)C2 [Compound A589]
6.00 to 7.00: [2]; K-Ras G12V, 5-day treatment | [3] | [4] | [5] | [6] | [7] | [8] | [10] | [11] | [12] | [13] | [14]
7.00 to 8.00: [1]; K-Ras G12C, 5-day treatment | [9]

CCn1c(-c2cccnc2[C@H](C)OC)c2c3cc(ccc31)-c1cc(cc(C(F)F)c1)C[C@H](NC(=O)[C@H](C(C)C)N(C)C(=O)[C@@H]1OCC[C@@H]1c1ccccc1)C(=O)N1CCC[C@H](N1)C(=O)OCC(C)(C)C2 [Compound A592]
5.00 to 6.00: [2] | [4] | [5] | [6] | [8] | [10] | [13] | [14]
6.00 to 7.00: [1] | [3] | [7] | [9] | [11] | [12]
